Experimental data from patent US20250144067A1, “PERSONALIZED STARVATION THERAPY FOR CANCER” (Faeth Therapeutics, Inc., priority 2021, published 2025).
Where a name gives a salt, the structure may show the parent alone.

tested on: NCI-H292 lung cancer cells; assay: FDA drug screening, complete media vs cholesterol-free media without statin (TABLE 1); assay type: cell-based, human; details: NCI-H292 cells, cholesterol-free media without statin

Row | Compound | Cholesterol-free
1 | COc1ccccc1OCC(O)CO (stereo not drawn) [Guaifenesin] | 1.204
2 | CCCCN(CCCC)CCC(O)c1cc2c(Cl)cc(Cl)cc2c2cc(C(F)(F)F)ccc12 (stereo not drawn) [Halofantrine hydrochloride] | 1.176
3 | CC1CC(OC(=O)c2ccccc2O)CC(C)(C)C1 (stereo not drawn) [Homosalate] | 0.9096
4 | NNc1nncc2ccccc12 [Hydralazine (hydrochloride)] | 1.529

same assay, conditions: NCI-H292 cells, cholesterol-free media without statin, FDA drug library screen

Row | Compound | Cholesterol-free
5 | N=C(N)NC(=O)Cc1c(Cl)cccc1Cl [Guanfacine (hydrochloride)] | 0.9809
6 | N=C(N)N [Guanidine (hydrochloride)] | 0.9919
7 | O=C(CCCN1CCC(O)(c2ccc(Cl)cc2)CC1)c1ccc(F)cc1 [Haloperidol] | 0.4782

same assay, conditions: NCI-H292 cells, complete media

Row | Compound | Complete
8 | COc1ccccc1OCC(O)CO (stereo not drawn) [Guaifenesin] | 0.8523
9 | CCCCN(CCCC)CCC(O)c1cc2c(Cl)cc(Cl)cc2c2cc(C(F)(F)F)ccc12 (stereo not drawn) [Halofantrine hydrochloride] | 0.7446
10 | CC1CC(OC(=O)c2ccccc2O)CC(C)(C)C1 (stereo not drawn) [Homosalate] | 0.5831
11 | NNc1nncc2ccccc12 [Hydralazine (hydrochloride)] | 1.081

same assay, conditions: NCI-H292 cells, complete media, FDA drug library screen

Row | Compound | Complete
12 | N=C(N)NC(=O)Cc1c(Cl)cccc1Cl [Guanfacine (hydrochloride)] | 1.601
13 | N=C(N)N [Guanidine (hydrochloride)] | 1.237
14 | O=C(CCCN1CCC(O)(c2ccc(Cl)cc2)CC1)c1ccc(F)cc1 [Haloperidol] | 0.7598

same assay, conditions: complete vs cholesterol-free media; >0 enhanced anti-cancer activity, about 0 neutral, <0 antagonist

Row | Compound | Difference
15 | N=C(N)NC(=O)Cc1c(Cl)cccc1Cl [Guanfacine (hydrochloride)] | 0.62
16 | N=C(N)N [Guanidine (hydrochloride)] | 0.24
17 | O=C(CCCN1CCC(O)(c2ccc(Cl)cc2)CC1)c1ccc(F)cc1 [Haloperidol] | 0.28

same assay, conditions: complete vs cholesterol-free media; greater than 0 enhanced anti-cancer activity, about 0 neutral, below 0 antagonists

Row | Compound | Difference
18 | COc1ccccc1OCC(O)CO (stereo not drawn) [Guaifenesin] | −0.35
19 | CCCCN(CCCC)CCC(O)c1cc2c(Cl)cc(Cl)cc2c2cc(C(F)(F)F)ccc12 (stereo not drawn) [Halofantrine hydrochloride] | −0.43
20 | CC1CC(OC(=O)c2ccccc2O)CC(C)(C)C1 (stereo not drawn) [Homosalate] | −0.33
21 | NNc1nncc2ccccc12 [Hydralazine (hydrochloride)] | −0.45

tested on: NCI-H292 lung cancer cells; assay: FDA drug screening, complete media vs cholesterol-free media with simvastatin (TABLE 2); assay type: cell-based, human; details: NCI-H292 cells, FDA drug library screen, cholesterol-free media with simvastatin 0.04 μM

Row | Compound | Cholesterol-free media + simvastatin (0.04 μM)
22 | COc1ccccc1OCC(O)CO (stereo not drawn) [Guaifenesin] | 1.078
23 | N=C(N)NC(=O)Cc1c(Cl)cccc1Cl [Guanfacine (hydrochloride)] | 1.401

same assay, conditions: NCI-H292 cells, FDA drug library screen, complete media

Row | Compound | Complete Media
24 | COc1ccccc1OCC(O)CO (stereo not drawn) [Guaifenesin] | 1.326
25 | N=C(N)NC(=O)Cc1c(Cl)cccc1Cl [Guanfacine (hydrochloride)] | 1.965

same assay, conditions: NCI-H292 cells, FDA library drug in cholesterol-free media with simvastatin 0.04 μM

Row | Compound | Cholesterol-free media + simvastatin (0.04 μM)
26 | CCCCN(CCCC)CCC(O)c1cc2c(Cl)cc(Cl)cc2c2cc(C(F)(F)F)ccc12 (stereo not drawn) [Halofantrine hydrochloride] | 1.233

same assay, conditions: NCI-H292 cells, FDA library drug in complete media

Row | Compound | Complete Media
27 | CCCCN(CCCC)CCC(O)c1cc2c(Cl)cc(Cl)cc2c2cc(C(F)(F)F)ccc12 (stereo not drawn) [Halofantrine hydrochloride] | 0.9282

same assay, conditions: NCI-H292 cells, cholesterol-free media with simvastatin 0.04 μM; cell growth value in FDA drug screen

Row | Compound | Cholesterol-free media + simvastatin (0.04 μM)
28 | O=C(CCCN1CCC(O)(c2ccc(Cl)cc2)CC1)c1ccc(F)cc1 [Haloperidol] | 0.8115
29 | CC1CC(OC(=O)c2ccccc2O)CC(C)(C)C1 (stereo not drawn) [Homosalate] | 1.411
30 | NNc1nncc2ccccc12 [Hydralazine (hydrochloride)] | 1.049

same assay, conditions: NCI-H292 cells, complete media; cell growth value in FDA drug screen

Row | Compound | Complete Media
31 | O=C(CCCN1CCC(O)(c2ccc(Cl)cc2)CC1)c1ccc(F)cc1 [Haloperidol] | 0.843
32 | CC1CC(OC(=O)c2ccccc2O)CC(C)(C)C1 (stereo not drawn) [Homosalate] | 1.442
33 | NNc1nncc2ccccc12 [Hydralazine (hydrochloride)] | 1.113

same assay, conditions: NCI-H292 cells, drug in cholesterol-free media with simvastatin 0.04 μM

Row | Compound | Cholesterol-free media + simvastatin (0.04 μM)
34 | N=C(N)N [Guanidine (hydrochloride)] | 1.136

same assay, conditions: NCI-H292 cells, drug in complete media

Row | Compound | Complete Media
35 | N=C(N)N [Guanidine (hydrochloride)] | 0.9286

same assay, conditions: complete media minus cholesterol-free media + simvastatin; >0 enhanced anti-cancer activity, about 0 neutral, <0 antagonist

Row | Compound | Difference
36 | COc1ccccc1OCC(O)CO (stereo not drawn) [Guaifenesin] | 0.25
37 | N=C(N)NC(=O)Cc1c(Cl)cccc1Cl [Guanfacine (hydrochloride)] | 0.56
38 | O=C(CCCN1CCC(O)(c2ccc(Cl)cc2)CC1)c1ccc(F)cc1 [Haloperidol] | 0.03
39 | CC1CC(OC(=O)c2ccccc2O)CC(C)(C)C1 (stereo not drawn) [Homosalate] | 0.03
40 | NNc1nncc2ccccc12 [Hydralazine (hydrochloride)] | 0.06

same assay, conditions: complete media vs cholesterol-free media + simvastatin (0.04 μM); >0 enhanced anti-cancer activity, about 0 neutral, <0 antagonist

Row | Compound | Difference
41 | N=C(N)N [Guanidine (hydrochloride)] | −0.21
42 | CCCCN(CCCC)CCC(O)c1cc2c(Cl)cc(Cl)cc2c2cc(C(F)(F)F)ccc12 (stereo not drawn) [Halofantrine hydrochloride] | −0.30
